Test results from patent US4537895A, “Isoquinoline derivatives” (EGYT Gyogyszervegyeszeti Gyar, priority 1982, dated 1985).
Where “and” joins values, the source holds several entries; their conditions need not be identical. Equal values may be shown once. Where a name gives a salt, the structure may show the parent alone. Read-outs that look alike come from different tables or passages of the source.

Key:
[1] = test system: catalepsy induced by tetrabenazine; experiment: Test 4: inhibition of tetrabenazine-induced catalepsy; format: in vivo; conditions: for TI (Test 4), LD/ED quotient: LD50 / ED of Test 4; for ED50: Mus musculus, sc, read-out: ED, s.c. dose which inhibits the catalepsy induced by tetrabenazine in 50% of the mice (Test 4)
Protocol: (§1) 4. S.c. dose which inhibits the catalepsy induced by a 110 umole/kg dose of tetrabenazine, in 50% of the mice.
(§2) The acute toxicity data are determined in mice. Tests 2-6 are also carried out in mice. The doses are expressed in micromole/kg. The therapeutical index (TI) is the LD/ED quotient.
(§3) Tests 2, 8, 9 and 10 are suitable for the evaluation of the dopaminerg stimulating effect of the test compounds (potential anti-parkinson agent). Tests 4, 5, 6 and 7 give information about the catecholamine-uptake inhibiting effect (potential antidepressive activity).

[2] = test system: blood pressure and nictitating membrane; experiment: Test 7: blood pressure and nictitating membrane effect; format: in vivo; conditions: Felis catus, iv, cats; ">" = inactive in the given dose; read-out: Lowest i.v. dose which still increases the blood pressure and nictitating membrane effect (Test 7)
Protocol: (§4) Tests 7-10 are carried out in cats and rats, the doses are expressed in micromole/kg.
as §3

[3] = test system: ptosis induced by tetrabenazine; experiment: Test 5: inhibition of tetrabenazine-induced ptosis; format: in vivo; conditions: for TI (Test 5), LD/ED quotient: LD50 / ED of Test 5; for ED50: Mus musculus, sc, read-out: ED, s.c. dose which inhibits the ptosis induced by tetrabenazine in 50% of the mice (Test 5)
Protocol: 5. S.c. dose which inhibits the ptosis induced by a dose of 79 umole/kg of tetrabenazine, in 50% of the mice.
as §2, §3

spontaneous motility = experiment: Test 3: spontaneous motility; format: in vivo; conditions: for TI (Test 3), LD/ED quotient: LD50 / ED of Test 3; for minimal effective dose: Mus musculus, ip
Protocol: 3. Lowest i.p. dose which still increases or decreases the spontaneous motility of the mice.
as §2
In Test 3 "+=motility increase" and "-=motility decrease."

[4] = test system: catalepsy induced by Haloperidol / tetrabenazine; experiment: Comparison of anti-haloperidol (Test 2) and anti-tetrabenazine (Test 4) activity; format: in vivo, mice; conditions: for Quotient of the ED values of Columns 2 and 4: ED Test 2 (haloperidol) : ED Test 4 (tetrabenazine)
Protocol: (§5) 2. S.c. dose which inhibits the catalepsy induced by a 13 umole/kg dose of Haloperidol, in 50% of the mice.
as §1, §2
On comparing the dopaminerg type anti-haloperidol test and the anti-tetrabenazine activity being characteristic of the antidepressive effect the following can be stated:
The quotient of the ED values of Columns 2 and 4 is the highest for Compound I (55:13=4.2). […] The said quotient is high in the case of Nomifensine (1.6), Compound D (1.8), Compound E (2.7) and Compound F (1.7).

[5] = test system: catalepsy induced by Haloperidol; experiment: Test 2: inhibition of haloperidol-induced catalepsy; format: in vivo; conditions: for TI (Test 2), LD/ED quotient: LD50 / ED of Test 2; for ED50: Mus musculus, sc, read-out: ED, s.c. dose which inhibits the catalepsy induced by Haloperidol in 50% of the mice (Test 2)
Protocol: as §5, §2, §3

[6] = test system: decrease of the rectal temperature caused by reserpine; experiment: Test 6: reserpine-induced decrease of rectal temperature; format: in vivo; conditions: for TI (Test 6), LD/ED quotient: LD50 / ED of Test 6; for minimal effective dose: Mus musculus, sc, read-out: ED, lowest s.c. dose which still hinders the decrease of the rectal temperature caused by reserpine (Test 6)
Protocol: 6. The lowest s.c. dose which still hinders the decrease of the rectal temperature caused by the administration of a 1,6 umole/kg dose of reserpine.
as §2, §3

[7] = Acute toxicity, s.c., LD50; parameters: species or system mice; conditions: mouse, in vivo, sc, mice, 96 hour observation
Protocol: as §2

stereotypy = experiment: Test 8: induction of stereotypy; format: in vivo; conditions: Rattus norvegicus, sc, rats; ">" = inactive in the given dose; read-out: Lowest s.c. dose which still induces stereotypy (Test 8)
Protocol: 8. The lowest s.c. dose which still induces stereotypy, in rats.
as §4, §3

prolactine level = experiment: Test 10: decrease of prolactine level in ovariectomised rats; format: in vivo; conditions: Rattus norvegicus, 96 h, after 4 days treatment with oestradiol 0.073 umole/kg, read-out: Dose which induces a significant decrease of the prolactine level (Test 10)
Protocol: 10. The dose which induces a significant decrease of the prolactine level after 4 days treatment with a dose of 0.073 umole/kg of oeastradiol, on three weeks earlier ovariectomised rats.
as §4, §3

[8] = Overall comparison with Nomifensine in the pharmacological tests; format: in vivo; conditions: all tests
Protocol: The pharmacological activity of the compounds of the present invention is determined by the following tests:
as §2, §4

[9] = read-out: ED, lowest i.p. dose which still decreases the spontaneous motility (Test 3, -)

| SMILES | TI (Test 4), LD/ED quotient [1] | ED50 [1] | minimal effective dose [2] | TI (Test 5), LD/ED quotient [3] | ED50 [3] | TI (Test 3), LD/ED quotient (spontaneous motility) | minimal effective dose (spontaneous motility; [9]) | Quotient of the ED values of Columns 2 and 4 [4] | TI (Test 2), LD/ED quotient [5] | ED50 [5] | TI (Test 6), LD/ED quotient [6] | minimal effective dose [6] | LD50 at 96 h [7] | minimal effective dose (stereotypy) | minimal effective dose (prolactine level) | also measured |
| --- | --- | --- | --- | --- | --- | --- | --- | --- | --- | --- | --- | --- | --- | --- | --- | --- |
| CN1Cc2c(NC(=O)CN3CCCC3)cccc2C(c2ccccc2)C1 (stereo not shown) [Compound A, 4-phenyl-2-methyl-8-pyrrolidino-acetylamino-1,2,3,4-tetrahydro-isoquinoline-dimaleate] | 11 | 62 µmol/kg | 5.2 µmol/kg | 15 | 43 µmol/kg | 3 | 206 µmol/kg | 1,4 | 8 | 86 µmol/kg | 8 | 86 µmol/kg | 653 µmol/kg | 89 µmol/kg | – | – |
| CC(C)NCCC(=O)Nc1cccc2c1CN(C)CC2c1ccccc1 (stereo not shown) [Compound B, 4-phenyl-8-[3'-isopropylamino-propionyl-amino]-2-methyl-1,2,3,4-tetrahydroisoquinoline-maleate] | 6 | 321 µmol/kg | 4.3 µmol/kg | 7 | 267 µmol/kg | 6 | 342 µmol/kg | 1,3 | 5 | 428 µmol/kg | 5 | 428 µmol/kg | 1920 µmol/kg | > 178 µmol/kg | 96 µmol/kg | – |
| CCNCC(=O)Nc1cccc2c1CN(C)CC2c1ccc(Cl)cc1 (stereo not shown) [Compound C, 8-ethylamino-acetyl-amino-4-p-chloro-phenyl-2-methyl-1,2,3,4-tetrahydroisoquinoline-maleate] | 13 | 51 µmol/kg | 1.1 µmol/kg | 49 | 14 µmol/kg | 16 | 42 µmol/kg | 1,0 | 13 | 53 µmol/kg | 62 | 11 µmol/kg | 686 µmol/kg | 68 µmol/kg | – | Activity compared with Nomifensine (in words) [8]: surpasses the activity of Nomifensine in three tests |
| CCCCNCC(=O)Nc1cccc2c1CN(C)CC2c1ccc(Cl)cc1 (stereo not shown) [Compound D, 8-butyl-amino-acetyl-amino-4-p-chloro-phenyl-2-methyl-1,2,3,4-tetrahydro-isoquinoline-maleate] | 24 | 27 µmol/kg | 1 µmol/kg | 82 | 7.8 µmol/kg | < 16 | – | 1,8 | 13 | 48 µmol/kg | 64 | 10 µmol/kg | 637 µmol/kg | 64 µmol/kg | 36 µmol/kg | minimal effective dose (spontaneous motility; read-out: ED, lowest i.p. dose which still increases or decreases the spontaneous motility (Test 3, no sign)): > 40 µmol/kg; Therapeutical index in the anti-reserpine test compared with Nomifensine (in words) ([6]; anti-reserpine test): more favourable therapeutical index |
| CCCCNC(=O)Nc1cccc2c1CN(C)CC2c1ccc(Cl)cc1 (stereo not shown) [Compound E, 8-n-butyl-carbamoyl-amino-4-p-chloro-phenyl-2-methyl-1,2,3,4-tetrahydro-isoquinoline-maleate] | > 23 | 90 µmol/kg | 6.1 µmol/kg | > 66 | 31 µmol/kg | > 66 | 31 µmol/kg | 2,7 | > 8 | 246 µmol/kg | – | > 205 µmol/kg | > 2050 µmol/kg | 275 µmol/kg | 143 µmol/kg | – |
| CCCCNC(=O)Nc1cccc2c1CN(C)CC2c1ccc(C)cc1 (stereo not shown) [Compound F, 2-methyl-8-n-butyl-carbamoyl-amino-4-p-tolyl-1,2,3,4-tetrahydro-isoquinoline-maleate] | > 20 | 128 µmol/kg | > 11 µmol/kg | > 80 | 32 µmol/kg | > 60 | 43 µmol/kg | > 1,7 and 1.7 | > 12 | > 214 µmol/kg | > 30 | 86 µmol/kg | > 2570 µmol/kg | 178 µmol/kg | 107 µmol/kg | – |
| CCCCNCC(=O)Nc1cccc2c1CN(C)CC2c1ccc(C)cc1 (stereo not shown) [Compound G, 8-butylamino-acetyl-amino-2-methyl-4-p-tolyl-1,2,3,4-tetrahydro-isoquinoline-maleate] | 9 | 71 µmol/kg | 2.1 µmol/kg | 133 | 5 µmol/kg | 66 | 10 µmol/kg | 0,4 | 23 | 29 µmol/kg | 32 | 21 µmol/kg | 664 µmol/kg | 108 µmol/kg | – | Activity compared with Nomifensine (in words) [8]: very high activity; Therapeutical index (in words) [8]: good therapeutical index; Antidepressant versus antiparkinson profile (in words) ([4]; from quotient ED2:ED4): stronger anti-dopamine, anti-parkinsone activity |
| CCNCC(=O)Nc1cccc2c1CN(C)CC2c1ccc(C)cc1 (stereo not shown) [Compound H, 8-ethylamino-acetyl-amino-2-methyl-4-p-tolyl-1,2,3,4-tetrahydro-isoquinoline maleate] | 7 | 99 µmol/kg | 2.2 µmol/kg | 59 | 12 µmol/kg | 32 | 22 µmol/kg | 0,3 | 21 | 33 µmol/kg | 16 | 44 µmol/kg | 706 µmol/kg | 183 µmol/kg | – | Therapeutical index (in words) [8]: good therapeutical index |
| CN1Cc2c(N)cccc2C(c2ccccc2)C1 (stereo not shown) [Nomifensine, 8-amino-4-phenyl-2-methyl-1,2,3,4-tetrahydro-isoquinoline, reference compound] | 30 | 37 µmol/kg | 1.4 µmol/kg | 268 | 4.2 µmol/kg | 40 | – | 1,6 | 20 | 56 µmol/kg | 40 | 28 µmol/kg | 1130 µmol/kg | 23 µmol/kg | 28 µmol/kg | Effect on spontaneous motility (in words) (spontaneous motility; mice): increases the spontaneous motility |
